Experiment: Pupil diameter after instillation of pilocarpine 1% before vs after TBUT (digital imaging system)
Assay type: in vivo
Conditions: 30 μL; for mean decrease from the baseline in pupil diameter: at 30 minutes, 6 normal eyes
Experimental: The following study examines the efficacy of pilocarpine, 1% in constricting the pupil and tropicamide, 1% in dilating the pupil when instilled before and after TBUT. Baseline pupil diameters were determined in 12 normal eyes using a digital imaging system (and controlling illumination). Six (6) of the eyes were dosed with 30 μL of pilocarpine and 6 with 30 μL of tropicamide, all before TBUT. Pupil diameter was measured every minute for 30 minutes after instillation. One day later, the same procedures were repeated in the same eyes, except that the subjects were instructed to stare without blinking (≧6 seconds) before the ophthalmic agents were instilled.

CC[C@@H]1C(=O)OC[C@@H]1Cc1cncn1C [Pilocarpine, pilocarpine]
mean decrease from the baseline in pupil diameter (instillation after TBUT): 2.44 units
mean decrease from the baseline in pupil diameter (instillation before TBUT): 1.12 units
greater pupil constriction with instillation after TBUT vs before TBUT (over the 30 minute period): 29.44%
